From patent US10316017B2, “COT modulators and methods of use thereof” (Gilead Sciences, Inc., priority 2015, dated 2019) come the findings set out here.

The EC50 is the concentration that produces a half-maximal response. What is called IC50 is the midpoint of a concentration-inhibition curve.

Assay [1] relates to TNFα production in LPS-stimulated human monocytes. The assay is described as follows: Cot Monocyte TNFα Cell Based Assay. The note with it: LPS-stimulated human monocytes, TNFα TR-FRET, read-out: EC50 TNF. An outline of the steps:
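Percent-of-control values derive from TR-FRET ratios of TNFα in spun-down media, referenced to unstimulated and LPS-stimulated wells. Exposure: 1 h compound preincubation, then 50 pg/ml LPS for 4 h, both at 37 °C, with 0.5% final DMSO.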
Background: TR-FRET usually uses a lanthanide donor and a delayed reading to cut background.

In assay [2] the target is T1, human Cot catalytic domain (30-397 amino acids) (Homo sapiens, UniProt P41279).
T1 construct: Purified recombinant human Cot catalytic domain (30-397 amino acids) was purchased from Cama Biosciences; purchased Cama Biosciences (so in the source)
The assay is described as follows: High Throughput Cot Biochemical Assay (KinEASE TR-FRET). The note with it: Cot KinEASE TR-FRET, 400 μM ATP; read-out: IC50 HTRF. An outline of the steps: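 Phosphorylation of 1 μM XL665-STK3 peptide by 5 nM Cot catalytic domain was measured by time-resolved FRET using a europium […] antibody. ATP was 400 μM; buffer was 10 mM MOPS pH 7.0 with Mg2+ and DTT.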

The structures appear in SMILES notation. Read-outs that look alike come from different tables or passages of the source.

T1 sequence (P41279 30-397): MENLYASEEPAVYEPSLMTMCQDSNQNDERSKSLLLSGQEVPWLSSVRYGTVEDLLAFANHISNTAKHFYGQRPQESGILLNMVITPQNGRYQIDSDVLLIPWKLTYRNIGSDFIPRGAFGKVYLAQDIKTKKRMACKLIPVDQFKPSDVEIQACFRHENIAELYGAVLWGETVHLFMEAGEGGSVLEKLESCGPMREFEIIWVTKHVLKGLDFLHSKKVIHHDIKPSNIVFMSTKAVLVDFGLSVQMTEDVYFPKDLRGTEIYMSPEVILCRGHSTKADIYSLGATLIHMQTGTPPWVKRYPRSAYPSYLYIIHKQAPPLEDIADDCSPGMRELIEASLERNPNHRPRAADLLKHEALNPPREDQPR

Regarding `Cc1c(C#N)cccc1[C@H](Nc1cc(C#N)c2ncc(C#N)c(NCC(C)(C)C(F)(F)F)c2c1)c1cn(C2(C(F)F)CC2)nn1` [Example 1125, (S)-6-(((3-cyano-2-methylphenyl)(1-(1-(difluoromethyl)cyclopropyl)-1H-1,2,3-triazol-4-yl)methyl)amino)-4-((3,3,3-trifluoro-2,2-dimethylpropyl)amino)quinoline-3,8-dicarbonitrile], the 50% effective concentration (EC50) in assay [1] (Homo sapiens, Monocyte) amounted to 0.051 µM. Moreover, in assay [2], the IC50 came to 0.004 µM.
Turning to `Cc1c(C#N)cccc1[C@H](Nc1cc(C#N)c2ncc(C#N)c(NCC(C)(C)C(F)(F)F)c2c1)c1cn(C2(C(F)F)CC2)nn1` [Example 1126, (S)-6-(((3-cyano-2-methylphenyl)(1-(1-(difluoromethyl)cyclopropyl)-1H-1,2,3-triazol-4-yl)methyl)amino)-4-((3,3,3-trifluoro-2,2-dimethylpropyl)amino)quinoline-3,8-dicarbonitrile], the 50% effective concentration (EC50) in assay [1] came to 0.066 µM. Further, the IC50 in assay [2] was 0.005 µM.
For `Cc1c(F)cccc1[C@H](Nc1cc(C#N)c2ncc(C#N)c(NCC(C)(C)C)c2c1)c1cn(C2(C(F)(F)F)CC2)nn1` [Example 1127, (S)-6-(((3-fluoro-2-methylphenyl)(1-(1-(trifluoromethyl)cyclopropyl)-1H-1,2,3-triazol-4-yl)methyl)amino)-4-(neopentylamino)quinoline-3,8-dicarbonitrile], the EC50 in assay [1] (Homo sapiens, Monocyte) came out at 0.221 µM. Moreover, in assay [2], the 50% inhibitory concentration (IC50) amounted to 0.013 µM.
As for `CC(C)(C)CNc1c(C#N)cnc2c(C#N)cc(N[C@@H](c3cccc(C4(C#N)CC4)c3)c3cn(C4(C(F)(F)F)CC4)nn3)cc12` [Example 1128, (S)-6-(((3-(1-cyanocyclopropyl)phenyl)(1-(1-(trifluoromethyl)cyclopropyl)-1H-1,2,3-triazol-4-yl)methy;)amino)-4-(neopentylamino)quinoline-3,8-dicarbonitrile], the EC50 in assay [1] (Homo sapiens, Monocyte) was determined as 0.307 µM. Further, the concentration for half-maximal inhibition (IC50) in assay [2] came to 0.009 µM.
The like results for `CC(C)(C)CNc1c(C#N)cnc2c(C#N)cc(N[C@@H](c3cccc(C4(C#N)CC4)c3)c3cn(C45CC(C4)C5)nn3)cc12` [Example 1129, (S)-6-(((1-(bicyclo[1.1.1]pentan-1-yl)-1H-1,2,3-triazol-4-yl)(3-(1-cyanocyclopropyl)phenyl)methyl)amino)-4-(neopentylamino)quinoline-3,8-dicarbonitrile] were, in that order, 0.148 µM and 0.005 µM.
The corresponding values for `CC(C)(C)CNc1c(C#N)cnc2c(C#N)cc(N[C@@H](c3ccc(F)cc3)c3cn(C45CC(C4)C5)nn3)cc12` [Example 1130, (S)-6-(((1-(bicyclo[1.1.1]pentan-1-yl)-1H-1,2,3-triazol-4-yl)(4-fluorophenyl)methyl)amino)-4-(neopentylamino)quinoline-3,8-dicarbonitrile] are 0.103 µM and 0.01 µM.
The like results for `Cc1c(-c2cnco2)cccc1[C@H](Nc1cc(C#N)c2ncc(C#N)c(NCC(C)(C)C)c2c1)c1cn(C2(C(F)(F)F)CC2)nn1` [Example 1131, (S)-6-(((2-methyl-3-(oxazol-5-yl)phenyl)(1-(1-(trifluoromethyl)cyclopropyl)-1H-1,2,3-triazol-4-yl)methyl)amino)-4-(neopentylamino)quinoline-3,8-dicarbonitrile] were, in that order, 0.038 µM and 0.003 µM.
For the compound `Cc1c(-c2cc[nH]n2)cccc1[C@H](Nc1cc(C#N)c2ncc(C#N)c(NCC(C)(C)C)c2c1)c1cn(C2(C(F)(F)F)CC2)nn1` [Example 1132, (S)-6-(((2-methyl-3-(1H-pyrazol-3-yl)phenyl)(1-(1-(trifluoromethyl)cyclopropyl)-1H-1,2,3-triazol-4-yl)methyl)amino)-4-(neopentylamino)quinoline-3,8-dicarbonitrile], the half-maximal effective concentration (EC50) in assay [1] (Homo sapiens, Monocyte) turned out to be 0.175 µM. In addition, the IC50 in assay [2] came out at 0.008 µM.
Turning to `Cc1c(-c2cn[nH]c2)cccc1[C@H](Nc1cc(C#N)c2ncc(C#N)c(NCC(C)(C)C)c2c1)c1cn(C2(C(F)(F)F)CC2)nn1` [Example 1133, (S)-6-(((2-methyl-3-(1H-pyrazol-4-yl)phenyl)(1-(1-(trifluoromethyl)cyclopropyl)-1H-1,2,3-triazol-4-yl)methyl)amino)-4-(neopentylamino)quinoline-3,8-dicarbonitrile], in assay [1] (Homo sapiens, Monocyte), the concentration for a half-maximal effect (EC50) came to 0.027 µM. Moreover, the 50% inhibitory concentration (IC50) in assay [2] is 0.004 µM.
On to `Cc1c(-c2ccnnc2)cccc1[C@H](Nc1cc(C#N)c2ncc(C#N)c(NCC(C)(C)C)c2c1)c1cn(C2(C(F)(F)F)CC2)nn1` [Example 1134, (S)-6-(((2-methyl-3-(pyridazin-4-yl)phenyl)(1-(1-(trifluoromethyl)cyclopropyl)-1H-1,2,3-triazol-4-yl)methyl)amino)-4-(neopentylamino)quinoline-3,8-dicarbonitrile], for which the EC50 in assay [1] (Homo sapiens, Monocyte) is 0.057 µM. Further, the IC50 in assay [2] worked out at 0.002 µM.
For the compound `Cc1c(-c2cncn2C)cccc1[C@H](Nc1cc(C#N)c2ncc(C#N)c(NCC(C)(C)C)c2c1)c1cn(C2(C(F)(F)F)CC2)nn1` [Example 1135, (S)-6-(((2-methyl-3-(1-methyl-1H-imidazol-5-yl)phenyl)(1-(1-(trifluoromethyl)cyclopropyl)-1H-1,2,3-triazol-4-yl)methyl)amino)-4-(neopentylamino)quinoline-3,8-dicarbonitrile], the EC50 in assay [1] (Homo sapiens, Monocyte) worked out at 0.044 µM. Moreover, in assay [2], the IC50 was determined as 0.002 µM.
As for `Cc1c(-c2cccnc2)cccc1[C@H](Nc1cc(C#N)c2ncc(C#N)c(NCC(C)(C)C)c2c1)c1cn(C2(C(F)(F)F)CC2)nn1` [Example 1136, (S)-6-(((2-methyl-3-(pyridin-3-yl)phenyl)(1-(1-(trifluoromethyl)cyclopropyl)-1H-1,2,3-triazol-4-yl)methyl)amino)-4-(neopentylamino)quinoline-3,8-dicarbonitrile], the EC50 in assay [1] (Homo sapiens, Monocyte) worked out at 0.128 µM. Also, the IC50 in assay [2] worked out at 0.004 µM.
Take `Cc1c(-c2ccncc2)cccc1[C@H](Nc1cc(C#N)c2ncc(C#N)c(NCC(C)(C)C)c2c1)c1cn(C2(C(F)(F)F)CC2)nn1` [Example 1137, (S)-6-(((2-methyl-3-(pyridin-4-yl)phenyl)(1-(1-(trifluoromethyl)cyclopropyl)-1H-1,2,3-triazol-4-yl)methyl)amino)-4-(neopentylamino)quinoline-3,8-dicarbonitrile]: the EC50 in assay [1] (Homo sapiens, Monocyte) was determined as 0.07 µM. In assay [2], the IC50 worked out at 0.005 µM.
In the case of `Cc1c(-c2cnn(C)c2)cccc1[C@H](Nc1cc(C#N)c2ncc(C#N)c(NCC(C)(C)C)c2c1)c1cn(C2(C(F)(F)F)CC2)nn1` [Example 1138, (S)-6-(((2-methyl-3-(1-methyl-1H-pyrazol-4-yl)phenyl)(1-(1-(trifluoromethyl)cyclopropyl)-1H-1,2,3-triazol-4-yl)methyl)amino)-4-(neopentylamino)quinoline-3,8-dicarbonitrile], the EC50 in assay [1] (Homo sapiens, Monocyte) was determined as 0.061 µM. For the same compound, the 50% inhibitory concentration (IC50) in assay [2] came out at 0.004 µM.
The like results for `Cc1cc(C#N)ccc1[C@H](Nc1cc(C#N)c2ncc(C#N)c(NCC(C)(C)C)c2c1)c1cn(C2(C(F)F)CC2)nn1` [Example 1139, (S)-6-(((4-cyano-2-methylphenyl)(1-(1-(difluoromethyl)cyclopropyl)-1H-1,2,3-triazol-4-yl)methyl)amino)-4-(neopentylamino)quinoline-3,8-dicarbonitrile] were, in that order, 0.082 µM and 0.013 µM.
As for `Cc1cc(C#N)ccc1[C@H](Nc1cc(C#N)c2ncc(C#N)c(NCC(C)(C)C)c2c1)c1cn(C2(C(F)(F)F)CC2)nn1` [Example 1140, (S)-6-(((4-cyano-2-methylphenyl)(1-(1-(trifluoromethyl)cyclopropyl)-1H-1,2,3-triazol-4-yl)methyl)amino)-4-(neopentylamino)quinoline-3,8-dicarbonitrile], the concentration giving a half-maximal response (EC50) in assay [1] (Homo sapiens, Monocyte) was found to be 0.119 µM. The 50% inhibitory concentration (IC50) in assay [2] was 0.022 µM.
For `Cc1c(-c2ccncc2)cccc1[C@H](Nc1cc(C#N)c2ncc(C#N)c(NCC(C)(C)C)c2c1)c1cn(C2(C(F)F)CC2)nn1` [Example 1141, (S)-6-(((1-(1-(difluoromethyl)cyclopropyl)-1H-1,2,3-triazol-4-yl)(2-methyl-3-(pyridin-4-yl)phenyl)methyl)amino)-4-(neopentylamino)quinoline-3,8-dicarbonitrile], the concentration giving a half-maximal response (EC50) in assay [1] (Homo sapiens, Monocyte) was 0.069 µM. For the same compound, the 50% inhibitory concentration (IC50) in assay [2] was found to be 0.002 µM.
For the compound `Cc1c(-c2cnn(C)c2)cccc1[C@H](Nc1cc(C#N)c2ncc(C#N)c(NCC(C)(C)C)c2c1)c1cn(C2(C(F)F)CC2)nn1` [Example 1142, (S)-6-(((1-(1-(difluoromethyl)cyclopropyl)-1H-1,2,3-triazol-4-yl)(2-methyl-3-(1-methyl-1H-pyrazol-4-yl)phenyl)methyl)amino)-4-(neopentylamino)quinoline-3,8-dicarbonitrile], in assay [1] (Homo sapiens, Monocyte), the EC50 was 0.031 µM. Also, the half-inhibitory concentration (IC50) in assay [2] amounted to 0.002 µM.
Turning to `Cc1c(-c2ccn(C)n2)cccc1[C@H](Nc1cc(C#N)c2ncc(C#N)c(NCC(C)(C)C)c2c1)c1cn(C2(C(F)(F)F)CC2)nn1` [Example 1143, (S)-6-(((2-methyl-3-(1-methyl-1H-pyrazol-3-yl)phenyl)(1-(1-(trifluoromethyl)cyclopropyl)-1H-1,2,3-triazol-4-yl)methyl)amino)-4-(neopentylamino)quinoline-3,8-dicarbonitrile], the 50% effective concentration (EC50) in assay [1] (Homo sapiens, Monocyte) stood at 0.239 µM. For the same compound, in assay [2], the 50% inhibitory concentration (IC50) amounted to 0.007 µM.
On to `Cc1c(-c2ccccn2)cccc1[C@H](Nc1cc(C#N)c2ncc(C#N)c(NCC(C)(C)C)c2c1)c1cn(C2(C(F)(F)F)CC2)nn1` [Example 1144, (S)-6-(((2-methyl-3-(pyridin-2-yl)phenyl)(1-(1-(trifluoromethyl)cyclopropyl)-1H-1,2,3-triazol-4-yl)methyl)amino)-4-(neopentylamino)quinoline-3,8-dicarbonitrile], for which the EC50 in assay [1] (Homo sapiens, Monocyte) is 0.379 µM. In assay [2], the concentration for half-maximal inhibition (IC50) came to 0.011 µM.
